Where two headings read alike, the source gives them in different places.
Experiments:
[1] = system: wild-type zebrafish larvae heart; type: in vivo, zebrafish (Danio rerio)
Method: Experiments were performed on wild-type (WT, AB strain) zebrafish (Danio rerio). The fish were maintained in accordance with the principles established by the NIH. […] The fish were kept in swimming medium (E3 medium) in small aquaria at 28° C. and maintained under a 14h: 10h light:dark cycle. The zebrafish larvae were maintained in the presence of 0.1% methylene blue (M9140, Sigma-Aldrich Inc, Israel) at 28° C. All measurements were taken in embryos at 72 hours post fertilization (hpf).
Ouabain, bufalin, digoxin, acetylcholine, carbachol, […] (pp2) and U0126 (1,4-diamino-2,3-dicyano-1,4-bis(2-aminophenylthio)butadiene) were purchased from Sigma-Aldrich Inc., Israel. The compounds were dissolved in egg water (0.3 g Instant Ocean Salt in distilled water) to a final selected concentration, as specified in the following examples. […]
Filming process Zebrafish larvae heart imaging was performed using an Olympus CKX41 (Japan) […] microscope with ×10 or ×20 magnification, and integrated incandescent illumination. A FastCam imi-tech (Korea) high speed digital camera with 640×480 pixel gray scale image sensor was mounted on the microscope, using ImCam software (IMI Technology, Co. Ltd) for high speed video recording. The larvae were anesthetized by placing them in filming/anesthetizing medium. Each larva in 0.5 ml filming/anesthetizing medium was transferred to a 96-well tissue culture plate at room temperature and sequential images of the heart were obtained, with the larvae positioned on their side, at 80 fps during 10 seconds with a shutter speed of 0.016 seconds.
Physiological parameters of cardiovascular performance, as indicated hereinbelow, were evaluated in the zebrafish larvae. Image analysis applications ImageJ (NIH, USA) were used, allowing the delineation of the endomyocardial border at the end of systole or end of diastole to define the ventricular area. Sequential still frames were analyzed to capture ventricular end-systole and end-diastole images. End Systolic Area (ESA, FIG. 1B) and End Diastolic Area (EDA, FIG. 1C) were used to calculate Fractional Area Change (FAC), according to the equation: FAC=(EDA-ESA)/EDA*100. The Ejection Fraction (EF) was determined by an independent estimate of ventricular volume. This was achieved by placing scan lines across the midventricular short axis (SA) and long axis (LA) at the end of systole (FIG. 1D) and diastole (FIG. 1E). […] EF was then calculated according to the equation: EF=(EDV-ESV)/EDV*100. Heart rate (HR) was measured in beats per minute. Cardiac output (CO) was calculated according to the equation: CO=(EDV-ESV)*HR. A minimum of five sequential pairs of systolic and diastolic cycles were measured and analyzed in 9-12 larvae for each treatment.

[2] = system: primary adult zebrafish cardiomyocytes; test: Primary adult zebrafish cardiomyocyte contractility; type: cell-based; details: for Amplitude / Contraction Rate (−dv/dt) / Relaxation Rate (+dv/dt): wt, 0.1 nM Oua, 0.5 Hz
Method: Adult (4 to 12-month-old) ventricular myocytes were obtained by enzymatic dissociation (with collagenase II and IV, at 5 mg/ml, each). The zebrafish were stunned by a blow to the head and the brain was pithed. The heart was quickly removed and placed in a small Petri dish containing 10 ml isolation solution: 100 mM NaCl, 10 mM KCl, 1.2 mM KH2PO4, 4 mM MgSO4, 50 mM taurine, 20 mM glucose, and 10 mM Hepes, pH 6.9. The ventricle was cut free from the bulbus and atrium under a binocular. Ventricles from 3 fish were incubated for 45 minutes at 32° C. in a solution containing perfusion buffer (150 mM NaCl, 5.4 mM KCl, 1.5 mM MgSO4, 0.4 mM NaH2PO4, 2 mM CaCl2, 10 mM glucose, and 10 mM Hepes, pH 7.7). Collagenases II and IV (Gibco, NY, USA, 5 mg/ml each) and additional CaCl2 (2.012 mM final concentration) were added. Following Eppendorf centrifugation (1 minute, 250×g at room temperature) the precipitated cells were suspended in 1 ml perfusion buffer for 30 minutes at room temperature before use.
Cells were transferred to a chamber with a quartz base and examined using an inverted epifluorescence microscope (Nikon Diaphot 200, Japan). The myocytes were field-stimulated (0.5 Hz, 70 V, square waves) and contractions were measured using a video motion edge detector (Crescent Electronics, Sandy, Utah, USA) at the rate of 5 Hz. Cardiomyocyte performance was calculated as the percentage of resting cell length. The slopes of contraction and relaxation (+dL/dt and −dL/dt) were calculated from the linear portions of the changes in contractility. 9 cells per each group were measured. Each of the experiments was repeated at least 3 times with identical results.

[3] = type: in vivo, rat; details: 10 day post MI
Method: Male Wister rats (150-175 g body weight) were used. Left anterior descending artery (LAD)-ligation was performed in all animals. […] All injected solutions contained 9% DMSO. Heart contractility in-vivo was monitored using echocardiography. At the end of the treatment period, animals were sacrificed and heart and blood samples were harvested for analysis. Blood samples were also collected (from the eye) at baseline and 24 hours post myocardial infarction (MI).
Blood samples were collected from rat eye at baseline and at 24 hrs. Post LAD-ligation. The plasmas of 11 animals were tested for the indicated biomarkers of MI.

[4] = wt larvae, 10 nM MK-2206, 1 nM CS
[5] = pre-incubation 1 nM MK-2206, 0.1 nM ouabain
[6] = Akt inhibitor experiment, 1 nM MK, 20 minutes
[7] = ERK inhibitor experiment, 10 nM PD98059, 20 minutes

Structure (SMILES): NC1(c2ccc(-c3nc4ccn5c(=O)[nH]nc5c4cc3-c3ccccc3)cc2)CCC1 [MK-2206]
- effect of inhibitor alone on heart function / basal contractility ([1]; PP2 50 nM, U0126 1 μM, MK-2206 10 nM for 2 hours): did not affect heart contractility parameters
- effect on CS-induced increase in heart contractility (FAC and EF) compared with CS in the absence of the inhibitor [1, 4]: doubling of the CS-induced increase in heart contractility
- effect on heart rate of MK-2206 with CS [1, 4]: not accompanied by any effect on heart rate
- contractility parameters, inhibitor by itself ([2]; 1 nM MK-2206): did not affect any of the contractility parameters
- enhancement of ouabain-induced augmentation: increase in amplitude [2, 5]: 113%
- enhancement of ouabain-induced augmentation: increase in contraction rise time [2, 5]: 183%
- enhancement of ouabain-induced augmentation: increase in relaxation rise time [2, 5]: 169%
- Amplitude [2, 6]: 0.19 ± 0.03
- Contraction Rate (−dv/dt) [2, 6]: 0.98 ± 0.19
- Relaxation Rate (+dv/dt) [2, 6]: 0.87 ± 0.20
- CPK [3]: 363.5 ± 88.59 unit/L
- Trop-T [3]: 0.07 ± 0.06 ng/mL

Structure (SMILES): C[C@@H]1O[C@@H](O[C@H]2C[C@@H](O)[C@]3(CO)[C@H]4[C@H](O)C[C@]5(C)[C@@H](C6=CC(=O)OC6)CC[C@]5(O)[C@@H]4CC[C@]3(O)C2)[C@H](O)[C@H](O)[C@H]1O [ouabain, 3-(alpha-L-Rhamnopyranosyloxy)-1beta,5beta,11alpha,14,19-pentahydroxy-5beta-card-20(22)-enolide]
- maximal increase in CO ([1]; 0.2 nM, 90 minutes): 38±3.68%
- effect on force of contraction ([1]; 1 nM): increased significantly the force of contraction
- effect on heart rate ([1]; 1 nM): without affecting heart rate
- effect on heart rate ([1]; 0.05-0.4 nM, 90 minutes): no change in heart rate
- concentration producing a significant increase in heart contractility ([1]; added to larvae swimming medium): 0.1 nM
- effect on heart force of contraction (FAC, EF, CO) ([1]; low concentrations (ouabain 0.05-0.4 nM), 90 minutes): significant increase in the heart force of contraction in a dose-dependent manner
- increase in contractility ([2]; 0.1 nM ouabain): three- to fourfold
- Amplitude [2, 6]: 0.38 ± 0.05
- Contraction Rate (−dv/dt) [2, 6]: 1.84 ± 0.28
- Relaxation Rate (+dv/dt) [2, 6]: 1.64 ± 0.23
- Amplitude [2, 7]: 0.53 ± 0.1
- Contraction Rate (−dv/dt) [2, 7]: 3.65 ± 0.38
- Relaxation Rate (+dv/dt) [2, 7]: 2.92 ± 0.37
- CPK [3]: 616.6 ± 197.6 unit/L
- Trop-T [3]: 0.24 ± 0.17 ng/mL

Source: patent US20180369264A1, “COMBINATION OF A CARDIAC STEROID AND AN AKT INHIBITOR FOR THE TREATMENT OF CARDIOVASCULAR DISEASES AND DISORDERS” (YISSUM RESEARCH DEVELOPMENT COMPANY OF THE HEBREW …, priority 2015, published 2018)
